In patent publication US9096686B2, “E518A/K mutant smoothened and methods of using the same” (Genentech, Inc., priority 2010, dated 2015):
Entries after “also recorded” stand apart in the source; their conditions may differ. Where two headings read alike, the source gives them in different places.

Experiments:
[1] = target: T1, SMO-E518K (Homo sapiens, UniProt Q99835, E518K); assay: Gli-luciferase reporter assay, SMO-E518K overexpression in C3H10T½ cells; type: cell-based
T1 construct: expressed in transfected cells; host or cells: C3H10T1/2 mouse fibroblasts (ATCC CCL-226), pRK5 vector, CMV promoter
T1 sequence (Q99835 28-787 E518K): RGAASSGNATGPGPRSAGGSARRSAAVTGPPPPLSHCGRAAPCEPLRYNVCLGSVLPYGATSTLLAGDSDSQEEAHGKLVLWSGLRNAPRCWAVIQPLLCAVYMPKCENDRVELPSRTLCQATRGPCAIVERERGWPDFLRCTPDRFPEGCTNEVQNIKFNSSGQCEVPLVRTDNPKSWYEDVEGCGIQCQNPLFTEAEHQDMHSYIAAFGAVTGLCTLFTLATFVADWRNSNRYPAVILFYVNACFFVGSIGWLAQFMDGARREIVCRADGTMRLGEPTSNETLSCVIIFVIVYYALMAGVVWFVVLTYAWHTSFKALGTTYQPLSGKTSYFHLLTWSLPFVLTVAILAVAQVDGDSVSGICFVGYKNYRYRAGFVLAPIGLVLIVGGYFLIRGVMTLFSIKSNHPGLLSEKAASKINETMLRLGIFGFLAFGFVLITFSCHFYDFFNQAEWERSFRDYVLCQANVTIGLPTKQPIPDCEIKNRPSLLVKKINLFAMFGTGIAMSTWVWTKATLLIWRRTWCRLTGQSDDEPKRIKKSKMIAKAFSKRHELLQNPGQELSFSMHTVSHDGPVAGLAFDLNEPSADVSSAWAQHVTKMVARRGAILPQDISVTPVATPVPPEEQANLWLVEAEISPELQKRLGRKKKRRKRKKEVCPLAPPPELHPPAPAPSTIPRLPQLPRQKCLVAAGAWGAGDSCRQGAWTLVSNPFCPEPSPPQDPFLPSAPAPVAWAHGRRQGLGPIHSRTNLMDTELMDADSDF
Method: (§1) Regions targeted by alanine scan mutagenesis are indicated in light grey. […] Values were normalized to maximum activity levels and represent means±SDs.
(§2) Circles mark the A-, B- and C-rings of some compounds as indicated for HhAntag.
(§3) Gli-luciferase reporter assays. Gli-luciferase reporter assays were performed as described (Rudin, C. M. et al. (2009) N. Engl. J. Med. 361:1173-1178) with the following modifications; C3H10T½ cells (ATCC, CCL-226) were seeded into six-well plates at 1.85×10^5 cells/well and values shown are the mean of four separate experiments ±1 standard deviation (SD).
(§4) These compounds were either identified in high-throughput screens (both in house and by others) or were generated by hit-to-lead optimization of screening hits using traditional medicinal chemistry methods. C3H10T½ cells were co-transfected with wild type or mutant SMO expression vectors together with a Gli-luciferase reporter construct (Murone M. et al. (1999) Curr. Biol. 9(2):76-84), and pathway activation was measured in the presence or absence of 1 μM compound.

[2] = target: T2, SMO-D473H (Homo sapiens, UniProt Q99835, D473H); assay: Gli-luciferase reporter assay, SMO-D473H overexpression in C3H10T½ cells; type: cell-based
T2 construct: expressed in transfected cells; host or cells: C3H10T1/2 mouse fibroblasts (ATCC CCL-226), pRK5 vector, CMV promoter
T2 sequence (Q99835 28-787 D473H): as the sequence (Q99835 28-787 E518K) above, with D446H, K491E counted along it
Method: as §2, §3, §4

[3] = target: T3, SMO-WT (Homo sapiens, UniProt Q99835); assay: Gli-luciferase reporter assay, SMO-WT overexpression in C3H10T½ cells; type: cell-based; conditions: 1 μM compound
T3 construct: expressed in transfected cells; host or cells: C3H10T1/2 mouse fibroblasts (ATCC CCL-226), pRK5 vector, CMV promoter
T3 sequence (Q99835 28-787): as the sequence (Q99835 28-787 E518K) above, with K491E counted along it
Method: as §2, §3, §4

[4] = Metabolism by human hepatocytes; type: in vitro ADME; conditions: unpublished observation
[5] = target: T4, SMO-E518A (Homo sapiens, UniProt Q99835, E518A); assay: Gli-luciferase reporter assay, SMO-E518A in C3H10T½ cells; type: cell-based; conditions: dose response; signaling activity despite 1 μM
T4 construct: expressed in transfected cells; host or cells: C3H10T1/2 mouse fibroblasts (ATCC CCL-226), pRK5 vector, CMV promoter
T4 sequence (Q99835 28-787 E518A): as the sequence (Q99835 28-787 E518K) above, with K491A counted along it
Method: as §1, §3

[6] = test system: medulloblastoma; conditions: medulloblastoma patient, widespread metastatic disease; cited from earlier work
[7] = Plasma pharmacokinetics after single oral dose in mice; type: in vivo
Source text: as §2

Row | Compound | potency against SMO-E518K (inhibition of Gli-luciferase activity) ([1]; 1 μM compound, C3H10T½ cells) | potency against SMO-D473H (inhibition of Gli-luciferase activity) ([2]; 1 μM compound, C3H10T½ cells) | pharmacokinetic properties in mice [7] | further results
1 | CC1=C2C[C@H]3[C@@H](CC=C4C[C@@H](O)CC[C@@]43C)[C@@H]2CC[C@]12O[C@@H]1C[C@H](C)CN[C@H]1[C@H]2C [cyclopamine] | – | – | – | potency against SMO-E518K (inhibition of Gli-luciferase activity) [1]: completely resistant; potency against SMO-D473H (inhibition of Gli-luciferase activity) [2]: partially resistant
2 | HhAntag | essentially equipotent against all SMO alleles | essentially equipotent against all SMO alleles | – | activity against wild type SMO (inhibition of Gli-luciferase activity) [3]: essentially equipotent against all SMO alleles; metabolism by human hepatocytes [4]: rapidly metabolized
3 | CS(=O)(=O)c1ccc(C(=O)Nc2ccc(Cl)c(-c3ccccn3)c2)c(Cl)c1 [GDC-0449] | – | – | – | resistance of SMO-E518K to the inhibitor, Gli-luciferase reporter activity ([1]; dose response, up to 1 μM): completely resistant; resistance of SMO-E518A to the inhibitor, Gli-luciferase reporter activity [5]: partially resistant; clinical response to treatment [6]: dramatic and rapid response
4 | O=C(Nc1ccc(Cl)c(NC(=O)c2cccc(Cl)c2)c1)c1ccc(N2CCC(O)CC2)nc1 [compound 4] | potent | potent; also recorded: improved potencies | good pharmacokinetic properties | –
5 | C[C@@H]1CN(c2ccc(C(=O)Nc3ccc(Cl)c(NC(=O)c4cccc(Cl)c4)c3)cn2)C[C@H](C)N1 [compound 5] | potent | potent; also recorded: improved potencies | good pharmacokinetic properties | half-life ([7]; mouse, single oral 100 mg kg-1 dose, plasma): 22 h
6 | Cc1nn(-c2ccccc2)c(C)c1/C=N/N1CCN(Cc2ccccc2)CC1 [SANT-1] | sensitive | partially resistant | – | –
